From PubChem BioAssay (NCI) come the findings set out here.

Some test systems named below: COLO 205 colon; SW-620 colon; MOLT-4 leukemia; NCI-H23 lung; OVCAR-5 ovarian; UACC-62 melanoma; BT-549 breast; RPMI-8226 leukemia; SK-OV-3 ovarian; MDA-MB-231 breast.
What all share (assay): DTP human tumour cell line panel, 48 h

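Dose response: 5 concentrations. Exposure: 48 h. Format: 96-well plates. Endpoint: linear interpolation; highest concentration if not reached. Abbreviation: GI50, concentration required for 50% inhibition of growth. TGI marks complete inhibition of growth.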 A value given as a limit tells only on which side of the number the result lay.

For orientation: TGI means the concentration at which net growth stops. On to `C/C(=N/NC(=S)N1CCCCC1)c1ccccc1O`, for which the TGI with COLO 205 colon, in the experiment on SW-620 colon, in the experiment with MOLT-4 leukemia, in the experiment with NCI-H23 lung, in the experiment on OVCAR-5 ovarian and in the experiment on UACC-62 melanoma was over 31.6 µM each time. For the same molecule, the TGI in the experiment on BT-549 breast was over 100 µM; in the experiment on RPMI-8226 leukemia it was over 31.6 µM; in the experiment on SK-OV-3 ovarian, over 31.6 µM; in the experiment on MDA-MB-231 breast it was over 100 µM.

In general, GI50 refers to the concentration that inhibits growth by half. `C#CC#CC#CC#CC#CC#CC#CC#CCC1OCC(COC(=O)O[C@@H](C(=O)O[C@H]2C[C@@]3(O)[C@@H](OC(=O)c4ccccc4)[C@@H]4[C@]5(OC(C)=O)CO[C@@H]5C[C@H](O)[C@@]4(C)C(=O)[C@H](OC(C)=O)C(=C2C)C3(C)C)[C@@H](NC(=O)c2ccccc2)c2ccccc2)O1` (stereo not given in full): the GI50 in the experiment with COLO 205 colon is 0.103 µM; with SW-620 colon, 0.104 µM; with MOLT-4 leukemia it was 0.212 µM; with NCI-H23 lung, 0.465 µM; with OVCAR-5 ovarian, 0.25 µM; in the experiment with UACC-62 melanoma it was 0.511 µM. The GI50 is 0.586 µM in the experiment with BT-549 breast, 0.0472 µM in the experiment on RPMI-8226 leukemia, 0.51 µM in the experiment on SK-OV-3 ovarian and 0.447 µM in the experiment with MDA-MB-231 breast. Further, the TGI in the experiment with COLO 205 colon is over 26.8 µM; with SW-620 colon, over 33.3 µM; in the experiment with MOLT-4 leukemia, over 33.3 µM; with NCI-H23 lung it was over 33.3 µM; with OVCAR-5 ovarian, over 33.3 µM; with UACC-62 melanoma, over 33.3 µM. In addition, the TGI in the experiment with BT-549 breast, in the experiment on RPMI-8226 leukemia, with SK-OV-3 ovarian and in the experiment on MDA-MB-231 breast was over 33.3 µM each time.

Take `Cc1cc([N+](=O)[O-])c(NS(=O)(=O)c2cccc(C(=O)O)c2)cc1-c1cccnc1`: the GI50 with COLO 205 colon, in the experiment on SW-620 colon, in the experiment on MOLT-4 leukemia, with NCI-H23 lung, in the experiment on OVCAR-5 ovarian and with UACC-62 melanoma was over 100 µM each time. The GI50 with BT-549 breast, in the experiment with RPMI-8226 leukemia, in the experiment with SK-OV-3 ovarian and with MDA-MB-231 breast was over 100 µM in each case. Moreover, the TGI in the experiment on COLO 205 colon, in the experiment with SW-620 colon, with MOLT-4 leukemia, with NCI-H23 lung, in the experiment with OVCAR-5 ovarian and in the experiment on UACC-62 melanoma was over 100 µM in each case. Besides, the TGI with BT-549 breast, with RPMI-8226 leukemia, in the experiment on SK-OV-3 ovarian and with MDA-MB-231 breast was over 100 µM throughout.

With `O=C1Nc2ccc(Br)cc2C1=Nc1cccnc1`, the TGI in the experiment on COLO 205 colon is over 100 µM; in the experiment on SW-620 colon, 46.4 µM; in the experiment on MOLT-4 leukemia it was 64.5 µM; in the experiment with NCI-H23 lung, 45.4 µM; in the experiment with OVCAR-5 ovarian it was over 100 µM; in the experiment on UACC-62 melanoma it was 35 µM. For the same molecule, the TGI in the experiment with BT-549 breast was 33.2 µM; with RPMI-8226 leukemia, 60.9 µM; in the experiment with SK-OV-3 ovarian, over 100 µM; in the experiment on MDA-MB-231 breast, 37.6 µM.

Take `O=c1cnn(C2OC(CO)C(O)C2O)c(=S)[nH]1` (stereo not given): the TGI with COLO 205 colon is over 100 µM; with SW-620 colon it was over 74.6 µM; in the experiment on MOLT-4 leukemia it was over 30.7 µM; in the experiment with NCI-H23 lung it was over 100 µM; in the experiment on OVCAR-5 ovarian it was over 100 µM; in the experiment with UACC-62 melanoma, over 100 µM. In addition, the TGI is over 100 µM in the experiment on BT-549 breast, over 29.8 µM in the experiment with RPMI-8226 leukemia, over 100 µM with SK-OV-3 ovarian and over 100 µM in the experiment on MDA-MB-231 breast.
